Source: patent publication US10294202B2, “Pyrrolidinones as herbicides” (FMC Corporation, priority 2013, dated 2019)

Experiments:
[1] = test system: crabgrass, large; experiment: Test A pre-/postemergence herbicide test; format: in vivo, Digitaria sanguinalis; settings: for Crabgrass, Large plant response rating: Preemergence, visual rating on 0 to 100 scale (0 no effect, 100 complete control)
How it was run: (§1)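 Approximately 10 days after treatment in the greenhouse, plants were compared with untreated controls and given a 0–100 visual injury rating. Applications: preemergence directed soil spray; postemergence on 2–10 cm plants at the one- to two-leaf stage.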

[2] = test system: corn; experiment: Test A pre-/postemergence herbicide test; format: in vivo, Zea mays; settings: for Corn plant response rating: Preemergence, visual rating on 0 to 100 scale (0 no effect, 100 complete control)
How it was run: as §1

[3] = test system: ryegrass, Italian; experiment: Test C pre-/postemergence herbicide test; format: in vivo, Lolium multiflorum; settings: Preemergence
How it was run: (§2)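 Plants grown and held in a greenhouse for 13 to 15 days post-spray, then rated 0–100 by visual comparison with controls. Pre treatments targeted seeds in loam and sand; post treatments targeted 1- to 4-leaf plants in peat-based potting medium.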

[4] = test system: johnsongrass; experiment: Test C pre-/postemergence herbicide test; format: in vivo, Sorghum halepense; settings: Preemergence
How it was run: as §2

[5] = test system: morningglory; experiment: Test C pre-/postemergence herbicide test; format: in vivo, Ipomoea coccinea; settings: Preemergence
How it was run: as §2

[6] = test system: barnyardgrass; experiment: Test C pre-/postemergence herbicide test; format: in vivo, Echinochloa crus-galli; settings: Preemergence
How it was run: as §2

[7] = test system: kochia; experiment: Test C pre-/postemergence herbicide test; format: in vivo, Kochia scoparia; settings: Preemergence
Excerpt: Seeds of plant species selected from blackgrass (Alopecurus myosuroides), ryegrass, Italian (Italian ryegrass, Lolium multiflorum), wheat (winter wheat, Triticum aestivum), galium (catchweed bedstraw, Galium aparine), corn (Zea mays), crabgrass, large (large crabgrass, Digitaria sanguinalis), foxtail, giant (giant foxtail, Setaria faberii), johnsongrass (Sorghum halepense), lambsquarters (Chenopodium album), morningglory (Ipomoea coccinea), nutsedge, yellow (yellow nutsedge, Cyperus esculentus), pigweed (Amaranthus retroflexus), ragweed (common ragweed, Ambrosia elatior), soybean (Glycine max), barnyardgrass (Echinochloa crus-galli), oilseed rape (Brassica napus), waterhemp (common waterhemp, Amaranthus rudis), kochia (Kochia scoparia), oat, wild (wild oat, Avena fatua), surinam grass (Brachiaria decumbens), foxtail, green (green foxtail, Setaria viridis), goosegrass (Eleusine indica), bromegrass, downy (downy bromegrass, Bromus tectorum), nightshade (eastern black nightshade, Solanum ptycanthum), cocklebur (common cocklebur, Xanthium strumarium), cupgrass, woolly (woolly cupgrass, Eriochloa villosa), bermudagrass (Cynodon dactylon), sunflower, (common oilseed sunflower, Helianthus annuus), Russian thistle (Salsola kali) and velvetleaf (Abutilon theophrasti) were planted into a blend of loam soil and sand and treated preemergence with test chemicals formulated in a non-phytotoxic solvent mixture which included a surfactant. At the same time, plants selected from these crop and weed species and also barley (winter barley, Hordeum vulgare), […]), chickweed (common chickweed, Stellaria media), deadnettle (henbit deadnettle, Lamium amplexicaule), and canarygrass (littleseed canarygrass, Phalaris minor) were planted in pots containing Redi-Earth® planting medium (Scotts Company, 14111 Scottslawn Road, Marysville, Ohio 43041) comprising spaghnum peat moss, vermiculite, wetting agent and starter nutrients and treated with postemergence applications of test chemicals formulated in the same manner. Plants ranged in height from 2 to 18 cm (1- to 4-leaf stage) for postemergence treatments. Treated plants and controls were maintained in a greenhouse for 13 to 15 days, after which time all species were compared to controls and visually evaluated. Plant response ratings, summarized in Table C, are based on a scale of 0 to 100 where 0 is no effect and 100 is complete control. A dash (-) response means no test result.

[8] = Postemergence, 125 g ai/ha, 0 to 100 scale, 0 no effect, 100 complete control
[9] = Postemergence, 500 g ai/ha, 0 to 100 scale (0 no effect, 100 complete control)
[10] = preemergence, 500 g ai/ha, 0 to 100 scale
[11] = 31 g ai/ha, scale 0 to 100, 0 is no effect and 100 is complete control
[12] = 125 g ai/ha, scale 0 to 100 (0 no effect, 100 complete control)

Compound	Plant response rating, Crabgrass, Large [1, 8]	Plant response rating, Crabgrass, Large [1, 9]	Crabgrass, Large plant response rating ([1]; 125 g ai/ha)	Plant response rating, Crabgrass, Large [1, 10]	Plant response rating, Corn [2, 8]	Plant response rating, Corn [2, 9]	Corn plant response rating ([2]; 125 g ai/ha)	Plant response rating, Corn [2, 10]	Plant response rating, Ryegrass, Italian ([3]; 62 g ai/ha, scale 0 to 100)	Plant response rating, Ryegrass, Italian [3, 12]	Plant response rating, Johnsongrass ([4]; 62 g ai/ha, scale 0 to 100)	Plant response rating, Johnsongrass [4, 12]	Plant response rating, Morningglory ([5]; 62 g ai/ha, scale 0 to 100)	Plant response rating, Morningglory [5, 12]	also measured
O=C1NCC(c2ccc(F)c(C(F)(F)F)c2)C1C(=O)Nc1cccc(F)c1F (racemic) [Compound 77]	80	80	90	90	50	70	0	30	40	40	55	75	0	0	Ryegrass, Italian plant response rating [3, 11]: 40; Plant response rating (scale of 0 to 100), Ryegrass, Italian ([3]; 250 g ai/ha): 45; Johnsongrass plant response rating [4, 11]: 20; Plant response rating (scale of 0 to 100), Johnsongrass ([4]; 250 g ai/ha): 90; Morningglory plant response rating [5, 11]: 0; Plant response rating (scale of 0 to 100), Morningglory ([5]; 250 g ai/ha): 0; Barnyardgrass plant response rating [6, 11]: 90; Plant response rating, Barnyardgrass ([6]; 62 g ai/ha, scale 0 to 100): 95; Plant response rating, Barnyardgrass [6, 12]: 95; Plant response rating (scale of 0 to 100; 0 is no effect, 100 is complete control), Barnyardgrass ([6]; 250 g ai/ha): 95
O=C1NCC(c2ccc(Cl)c(Cl)c2)C1C(=O)Nc1ccccc1F (racemic) [Compound 14]	80	90	90	90	0	0	0	0	0	0	0	0	0	0	Plant response rating, Kochia ([7]; 62 g ai/ha, scale 0 to 100): 0; Plant response rating, Kochia [7, 12]: 0
